# Where two headings read alike, the source gives them in different places.
# Experiments:
# Assay type in all cases: cell-based, Acinetobacter baumannii
# [1] = system: A. baumannii NCTC 13301 (OXA 51, OXA 23); test: MIC in Muller Hinton Agar (CLSI agar dilution); conditions: Acinetobacter baumannii
# Method: (§1) The antibacterial activity of combinations according to the invention against resistant bacterial strains was investigated. Minimum Inhibitory Concentration (MIC) for the combinations according to invention was determined in Muller Hinton Agar (MHA) (BD, USA) according to Clinical and Laboratory Standards Institute (CLSI) recommendations (Clinical and Laboratory Standards Institute (CLSI), Performance Standards for Antimicrobial Susceptibility Testing, 20th Informational Supplement, M 100-S20, Volume 30, No. 1, 2010). Typically, the test strains were adjusted to deliver about 10^4 CFU per spot with a multipoint inoculator (Applied Quality Services, UK). The plates were pored with MHA containing doubling concentration range of the test combinations according to invention. The plates were inoculated and were incubated at 35° C. for 18 hours.
# [2] = system: A. baumannii Q 1460648 (OXA 51, OXA 23); test: MIC in Muller Hinton Agar (CLSI agar dilution); conditions: Acinetobacter baumannii
# Method: as §1
# [3] = system: A. baumannii NCTC 13302 (OXA 51, OXA 25); test: MIC in Muller Hinton Agar (CLSI agar dilution); conditions: Acinetobacter baumannii
# Method: as §1
# [4] = system: A. baumannii NCTC 13305 (OXA 51, OXA 58); test: MIC in Muller Hinton Agar (CLSI agar dilution); conditions: Acinetobacter baumannii
# Method: as §1
# [5] = system: A. baumannii M 126 (OXA 51, OXA 23); test: MIC in Muller Hinton Agar (CLSI agar dilution); conditions: Acinetobacter baumannii
# Method: as §1
# [6] = system: A. baumannii J 144 (OXA 51, OXA 23); test: MIC in Muller Hinton Agar (CLSI agar dilution); conditions: Acinetobacter baumannii
# Method: as §1
# [7] = system: A. baumannii NCTC 13304 (OXA 51, OXA 27); test: MIC in Muller Hinton Agar (CLSI agar dilution); conditions: Acinetobacter baumannii
# Method: as §1
# [8] = system: A. baumannii NCTC 13303 (OXA 51, OXA 26); test: MIC in Muller Hinton Agar (CLSI agar dilution); conditions: Acinetobacter baumannii
# Method: as §1
# [9] = system: A. baumannii G 156 (OXA 51, OXA 23); test: MIC in Muller Hinton Agar (CLSI agar dilution); conditions: Acinetobacter baumannii
# Method: as §1
# [10] = system: A. baumannii NCTC 13302 (OXA 51, OXA 25); test: Time kill study; conditions: for Bacterial count: agent alone at 8 mcg/ml, initial count 6.54 log CFU/ml
# Method: (§2) The synergistic killing effect of the combinations according to invention was studied using time kill studies. In a typical time kill study, freshly grown cultures were diluted to the required cell density (initial starting inoculum) in Cation adjusted Muller Hinton broth medium (BD, USA). The antibacterial agents (either alone or in combination) at the required concentrations were added into the culture-containing medium. The samples were incubated under shaking condition (120 rpm) at 37° C. Enumeration of viable bacterial count was done every 2 hour by diluting in normal saline and plating on to the Tryptic Soya Agar plates (BD, USA). The plates were incubated for 24 hours to arrive at the viable bacterial count. The results are expressed in terms of Log CFU per […]. In general, the decrease of 1 Log CFU/ml, corresponds to 90% killing of bacteria. Similarly, 2 Log CFU/ml reductions indicates 99% killing of bacteria and 3 Log CFU/ml reductions is equal to 99.9% killing of bacteria.
# [11] = system: A. baumannii NCTC 13304 (OXA 51, OXA 27); test: Time kill study; conditions: for Bacterial count: agent alone at 8 mcg/ml, initial count 6.06 log CFU/ml
# Method: as §2
structure (smiles),measurement,setting,value
"CC1(C)[C@H](C(=O)O)N2C(=O)C[C@H]2S1(=O)=O [Sulbactam, sulbactam]",MIC,"[1]; NCTC13301, read-out: MIC of Sulbactam, In presence of Compound of Formula (I) (4 mcg/ml), NCTC 13301",4 µg/mL
same,MIC,"[1]; NCTC13301, read-out: MIC of Sulbactam, In presence of Compound of Formula (I) (8 mcg/ml), NCTC 13301",2 µg/mL
same,MIC,"[1]; NCTC13301, agent alone, A. baumannii NCTC 13301",32 µg/mL
same,MIC,"[2]; read-out: MIC of Sulbactam, In presence of Compound of Formula (I) (4 mcg/ml), Q 1460648",4 µg/mL
same,MIC,"[2]; read-out: MIC of Sulbactam, In presence of Compound of Formula (I) (8 mcg/ml), Q 1460648",2 µg/mL
same,MIC,"[2]; agent alone, A. baumannii Q 1460648",16 µg/mL
same,MIC,"[3]; NCTC13302, read-out: MIC of Sulbactam, In presence of Compound of Formula (I) (4 mcg/ml), NCTC 13302",4 µg/mL
same,MIC,"[3]; NCTC13302, read-out: MIC of Sulbactam, In presence of Compound of Formula (I) (8 mcg/ml), NCTC 13302",2 µg/mL
same,MIC,"[3]; NCTC13302, agent alone, A. baumannii NCTC 13302",32 µg/mL
same,MIC,"[4]; NCTC13305, read-out: MIC of Sulbactam, In presence of Compound of Formula (I) (4 mcg/ml), NCTC 13305",2 µg/mL
same,MIC,"[4]; NCTC13305, read-out: MIC of Sulbactam, In presence of Compound of Formula (I) (8 mcg/ml), NCTC 13305",1 µg/mL
same,MIC,"[4]; NCTC13305, agent alone, A. baumannii NCTC 13305",4 µg/mL
same,MIC,"[5]; read-out: MIC of Sulbactam, In presence of Compound of Formula (I) (4 mcg/ml), M 126",8 µg/mL
same,MIC,"[5]; read-out: MIC of Sulbactam, In presence of Compound of Formula (I) (8 mcg/ml), M 126",2 µg/mL
same,MIC,"[5]; agent alone, A. baumannii M 126",32 µg/mL
same,MIC,"[6]; read-out: MIC of Sulbactam, In presence of Compound of Formula (I) (4 mcg/ml), J 144",2 µg/mL
same,MIC,"[6]; read-out: MIC of Sulbactam, In presence of Compound of Formula (I) (8 mcg/ml), J 144",1 µg/mL
same,MIC,"[6]; agent alone, A. baumannii J 144",16 µg/mL
same,MIC,"[7]; NCTC13304, read-out: MIC of Sulbactam, In presence of Compound of Formula (I) (4 mcg/ml), NCTC 13304",2 µg/mL
same,MIC,"[7]; NCTC13304, read-out: MIC of Sulbactam, In presence of Compound of Formula (I) (8 mcg/ml), NCTC 13304",1 µg/mL
same,MIC,"[7]; NCTC13304, agent alone, A. baumannii NCTC 13304",8 µg/mL
same,MIC,"[8]; NCTC13303, read-out: MIC of Sulbactam, In presence of Compound of Formula (I) (4 mcg/ml), NCTC 13303",8 µg/mL
same,MIC,"[8]; NCTC13303, read-out: MIC of Sulbactam, In presence of Compound of Formula (I) (8 mcg/ml), NCTC 13303",4 µg/mL
same,MIC,"[8]; NCTC13303, agent alone, A. baumannii NCTC 13303",16 µg/mL
same,MIC,"[9]; read-out: MIC of Sulbactam, In presence of Compound of Formula (I) (4 mcg/ml), G 156",4 µg/mL
same,MIC,"[9]; read-out: MIC of Sulbactam, In presence of Compound of Formula (I) (8 mcg/ml), G 156",2 µg/mL
same,MIC,"[9]; agent alone, A. baumannii G 156",8 µg/mL
same,Bacterial count,[10]; 2 hours,5.74 Log CFU/ml
same,Bacterial count,[10]; 4 hours,5.09 Log CFU/ml
same,Bacterial count,[10]; 6 hours,6.04 Log CFU/ml
same,Bacterial count,[10]; 8 hours,7.46 Log CFU/ml
same,Effect on bacterial counts throughout the duration of the study (in words),"[10]; A. baumannii NCTC 13302, summary of Table 3",did not reduce the bacterial counts
same,Bacterial count,[11]; 2 hours,7.73 Log CFU/ml
same,Bacterial count,[11]; 4 hours,7.07 Log CFU/ml
same,Bacterial count,[11]; 6 hours,8.2 Log CFU/ml
same,Effect on bacterial counts throughout the duration of the study (in words),"[11]; A. baumannii NCTC 13304, summary of Table 4",did not reduce the bacterial counts

# Source: US20160287571A1, “PHARMACEUTICAL COMPOSITIONS COMPRISING ANTIBACTERIAL AGENTS” (priority 2013, published 2016)
